Results published in patent US20240208992A1, “MACROCYCLES AS CFTR MODULATORS” (Idorsia Pharmaceuticals Ltd, priority 2021, published 2024).

Biological target: human F508del-CFTR (Homo sapiens, UniProt P13569, DEL508-508)
Test: F508del-CFTR cell surface expression (corrector activity), DiscoveRx ß-galactosidase complementation chemiluminescence assay in recombinant U2OS cell line;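 note: U2OS cells co-expressing ProLink-tagged F508del-CFTR and a membrane-anchored enzyme acceptor, where more surface CFTR restores β-galactosidase activity measured by chemiluminescence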
Conditions: for EC50: EC50, F508del-CFTR cell surface expression; for Emax: U2OS
[1] = U2OS cells, 16h compound incubation, geomean values
[2] = in relation to Emax of corrector lumacaftor (=100%), arithmetic mean values
[3] = U2OS cell line, 16h compound incubation, geomean values
[4] = in relation to the Emax of the corrector lumacaftor (=100%), U2OS cell line, 16h compound incubation, arithmetic mean values

Sequence of human F508del-CFTR (P13569 with tags, fused parts or gaps DEL508-508): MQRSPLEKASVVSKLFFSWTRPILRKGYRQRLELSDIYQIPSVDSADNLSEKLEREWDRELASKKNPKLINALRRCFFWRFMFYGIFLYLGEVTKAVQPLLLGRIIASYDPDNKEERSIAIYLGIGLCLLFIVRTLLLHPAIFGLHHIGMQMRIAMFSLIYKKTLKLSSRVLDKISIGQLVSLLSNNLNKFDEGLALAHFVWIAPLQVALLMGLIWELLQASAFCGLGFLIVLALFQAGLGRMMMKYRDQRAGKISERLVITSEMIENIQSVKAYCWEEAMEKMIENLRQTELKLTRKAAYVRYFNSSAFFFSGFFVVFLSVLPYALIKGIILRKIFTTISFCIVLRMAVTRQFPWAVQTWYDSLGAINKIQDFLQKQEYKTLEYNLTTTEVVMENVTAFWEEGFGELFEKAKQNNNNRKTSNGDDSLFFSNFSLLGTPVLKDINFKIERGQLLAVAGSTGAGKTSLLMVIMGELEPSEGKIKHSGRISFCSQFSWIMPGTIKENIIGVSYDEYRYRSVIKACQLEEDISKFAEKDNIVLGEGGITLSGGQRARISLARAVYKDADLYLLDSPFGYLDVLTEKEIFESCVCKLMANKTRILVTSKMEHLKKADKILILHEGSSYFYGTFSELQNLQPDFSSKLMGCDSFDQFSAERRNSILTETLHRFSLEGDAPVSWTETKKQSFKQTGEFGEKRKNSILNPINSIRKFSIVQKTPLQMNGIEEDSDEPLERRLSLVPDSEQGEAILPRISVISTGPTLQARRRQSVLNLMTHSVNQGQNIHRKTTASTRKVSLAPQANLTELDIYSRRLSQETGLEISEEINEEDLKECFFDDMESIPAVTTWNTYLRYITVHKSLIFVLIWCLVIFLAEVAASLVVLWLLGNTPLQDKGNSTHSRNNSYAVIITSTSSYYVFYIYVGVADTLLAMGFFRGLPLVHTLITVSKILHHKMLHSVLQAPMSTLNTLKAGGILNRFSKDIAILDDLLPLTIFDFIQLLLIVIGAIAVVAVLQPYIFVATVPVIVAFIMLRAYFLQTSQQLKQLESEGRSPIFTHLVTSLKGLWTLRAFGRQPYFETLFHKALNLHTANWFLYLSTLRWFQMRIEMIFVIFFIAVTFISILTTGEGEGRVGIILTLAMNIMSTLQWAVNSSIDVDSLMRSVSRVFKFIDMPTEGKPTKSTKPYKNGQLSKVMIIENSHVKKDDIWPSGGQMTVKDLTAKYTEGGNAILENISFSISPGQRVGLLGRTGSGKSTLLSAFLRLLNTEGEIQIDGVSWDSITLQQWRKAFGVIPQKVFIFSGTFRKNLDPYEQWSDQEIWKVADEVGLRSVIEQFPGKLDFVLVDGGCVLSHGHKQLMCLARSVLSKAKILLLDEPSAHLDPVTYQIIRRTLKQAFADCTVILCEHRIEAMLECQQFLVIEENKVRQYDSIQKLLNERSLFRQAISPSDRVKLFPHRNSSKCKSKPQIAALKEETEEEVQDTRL

SMILES | EC50 [1] [nM] | Emax [2] [%] | EC50 [3] [nM] | other results
Cc1nc2ccc3c(c2o1)C(=O)N[C@H](C(=O)NCCc1ccc(-n2nccn2)cc1)CC(=O)N(C)[C@@H](CC(C)C)C(=O)N1CCN(CC2CC2)C[C@@H]1C(=O)N[C@H](Cc1ccccc1)CO3 [Example 428, (8S,12S,18aR,21R)-N-(4-(2H-1,2,3-triazol-2-yl)phenethyl)-21-benzyl-17-(cyclopropylmethyl)-12-isobutyl-4,11-dimethyl-6,10,13,19-tetraoxo-6,7,8,9,10,11,12,13,16,17,18,18a,19,20,21,22-hexadecahydro-15H-oxazolo[4′,5′:5,6]benzo[1,2-p]pyrazino[2,1-f][1]oxa[4,7,10,14]tetraazacycloheptadecine-8-carboxamide] | 614 | 218 | – | –
CC(C)C[C@H]1C(=O)N(C)C2(CC2)C(=O)N[C@H](Cc2ccccc2)COc2cnc3ccc(F)cc3c2C(=O)N[C@H](C(=O)NCCc2ccc(N3CCOCC3)cc2)CC(=O)N1C [Example 170, (3′S,7′S,13′R)-13′-benzyl-20′-fluoro-7′-isobutyl-6′,9′-dimethyl-N-(4-morpholinophenethyl)-1′,5′,8′,11′-tetraoxo-2′,3′,4′,5′,6′,7′,8′,9′,11′,12′,13′,14′-dodecahydro-1′H-spiro[cyclopropane-1,10′-[1]oxa[4,7,10,14]tetraazacycloheptadecino[17,16-c]quinoline]-3′-carboxamide] | – | – | 329 | Emax [4]: 267%
COc1ccc(CCNC(=O)[C@@H]2CC(=O)N(C)[C@@H](CC(C)C)C(=O)N(C)C3(CC3)C(=O)N[C@H](Cc3ccccc3)COc3cnc4ccccc4c3C(=O)N2)cc1 [Example 111, (3′S,7′S,13′R)-13′-benzyl-7′-isobutyl-N-(4-methoxyphenethyl)-6′,9′-dimethyl-1′,5′,8′,11′-tetraoxo-2′,3′,4′,5′,6′,7′,8′,9′,11′,12′,13′,14′-dodecahydro-1′H-spiro[cyclopropane-1,10′-[1]oxa[4,7,10,14]tetraazacycloheptadecino[17,16-c]quinoline]-3′-carboxamide] | – | – | 392 | Emax [4]: 242%
COc1noc(CCNC(=O)[C@@H]2CC(=O)N(C)[C@@H](CC(C)C)C(=O)N(C)[C@H](CC(F)(F)F)C(=O)N[C@H](Cc3ccccc3)COc3cc(C)nc(OC)c3C(=O)N2)n1 [Example 942, (3R,6R,9S,13S)-3-benzyl-9-isobutyl-16-methoxy-N-(2-(3-methoxy-1,2,4-oxadiazol-5-yl)ethyl)-7,10,18-trimethyl-5,8,11,15-tetraoxo-6-(2,2,2-trifluoroethyl)-2,3,4,5,6,7,8,9,10,11,12,13,14,15-tetradecahydropyrido[3,4-p][1]oxa[4,7,10,14]tetraazacycloheptadecine-13-carboxamide] | – | – | – | EC50 (U2OS cells, 16h compound incubation, geomean of several measurements): 194 nM; Emax (in relation to the Emax of the corrector lumacaftor (=100%), U2OS cells, 16h compound incubation, arithmetic mean): 460%
COc1cccc(CCNC(=O)[C@@H]2CC(=O)N(C)[C@@H](CC(C)C)C(=O)N(CCC3CCCCC3)CC(=O)N[C@H](Cc3ccccc3)COc3ccncc3C(=O)N2)c1 [Example 590, (3R,9S,13S)-3-benzyl-7-(2-cyclohexylethyl)-9-isobutyl-N-(3-methoxyphenethyl)-10-methyl-5,8,11,15-tetraoxo-2,3,4,5,6,7,8,9,10,11,12,13,14,15-tetradecahydropyrido[3,4-p][1]oxa[4,7,10,14]tetraazacycloheptadecine-13-carboxamide] | 362 | 201 | – | –
CN1C(=O)C[C@@H](C(=O)NCCc2ccc3c(c2)OCO3)NC(=O)c2c(ccc3ccccc23)OC[C@@H](Cc2ccccc2)NC(=O)CN(C[C@@H]2CCCCO2)C(=O)[C@@H]1CC1CCCC1 (mixture of isomers) [Example 284, (3RS,7S,13R)-N-(2-(benzo[d][1,3]dioxol-5-yl)ethyl)-13-benzyl-7-(cyclopentylmethyl)-6-methyl-1,5,8,11-tetraoxo-9-(((S)-tetrahydro-2H-pyran-2-yl)methyl)-1,2,3,4,5,6,7,8,9,10,11,12,13,14-tetradecahydronaphtho[1,2-p][1]oxa[4,7,10,14]tetraazacycloheptadecine-3-carboxamide] | – | – | 337 | –
Cc1cc(CCNC(=O)[C@@H]2CC(=O)N(C)[C@@H](CC(C)C)C(=O)N3CCCC[C@@H]3C(=O)N[C@H](Cc3ccccc3)COc3ccc4nc(C)oc4c3C(=O)N2)on1 [Example 632, (8S,12S,18aR,21R)-21-benzyl-12-isobutyl-4,11-dimethyl-N-(2-(3-methylisoxazol-5-yl)ethyl)-6,10,13,19-tetraoxo-6,7,8,9,10,11,12,13,16,17,18,18a,19,20,21,22-hexadecahydro-15H-oxazolo[4′,5′:5,6]benzo[1,2-p]pyrido[2,1-f][1]oxa[4,7,10,14]tetraazacycloheptadecine-8-carboxamide] | 927 | 326 | – | –
Cc1cc(CCNC(=O)[C@@H]2CC(=O)N(C)[C@@H](CC(C)C)C(=O)N3CCN(C(=O)OCC(Cl)(Cl)Cl)C[C@@H]3C(=O)N[C@H](Cc3ccccc3)COc3cnc4ccccc4c3C(=O)N2)on1 [Example 458, 2,2,2-trichloroethyl (9S,13S,19aR,22R)-22-benzyl-13-isobutyl-12-methyl-9-((2-(3-methylisoxazol-5-yl)ethyl)carbamoyl)-7,11,14,20-tetraoxo-7,8,9,10,11,12,13,14,16,17,19,19a,20,21,22,23-hexadecahydro-18H-pyrazino[2′,1′:6,7][1]oxa[4,7,10,14]tetraazacycloheptadecino[17,16-c]quinoline-18-carboxylate] | 209 | 238 | – | –
CC(C)C[C@H]1C(=O)N2CCOC[C@@H]2C(=O)N[C@H](Cc2ccccc2)COc2cnc3ccc(F)cc3c2C(=O)N[C@H](C(=O)NCCc2cc(C3CC3)on2)CC(=O)N1C [Example 643, (9S,13S,19aR,22R)-22-benzyl-N-(2-(5-cyclopropylisoxazol-3-yl)ethyl)-5-fluoro-13-isobutyl-12-methyl-7,11,14,20-tetraoxo-7,8,9,10,11,12,13,14,16,17,19,19a,20,21,22,23-hexadecahydro-[1,4]oxazino[3′,4′:6,7][1]oxa[4,7,10,14]tetraazacycloheptadecino[17,16-c]quinoline-9-carboxamide] | 220 | 270 | – | –
COc1cccc(CCNC(=O)[C@@H]2CC(=O)N(C)[C@@H](CC(C)C)C(=O)N(CCC3CCCCC3)CC(=O)N[C@H](Cc3ccccc3)COc3cc(OC)c(OC)cc3C(=O)N2)c1 [Example 586, (3R,9S,13S)-3-benzyl-7-(2-cyclohexylethyl)-9-isobutyl-17,18-dimethoxy-N-(3-methoxyphenethyl)-10-methyl-5,8,11,15-tetraoxo-2,3,4,5,6,7,8,9,10,11,12,13,14,15-tetradecahydrobenzo[p][1]oxa[4,7,10,14]tetraazacycloheptadecine-13-carboxamide] | 221 | 165 | – | –
CC(C)C[C@H]1C(=O)N2CCCC[C@@H]2C(=O)N[C@H](Cc2ccccc2)COc2ccncc2C(=O)N[C@H](C(=O)NCCc2ccc3c(c2)OCCO3)CC(=O)N1C [Example 594, (7S,11S,17aR,20R)-20-benzyl-N-(2-(2,3-dihydrobenzo[b][1,4]dioxin-6-yl)ethyl)-11-isobutyl-10-methyl-5,9,12,18-tetraoxo-5,6,7,8,9,10,11,12,15,16,17,17a,18,19,20,21-hexadecahydro-14H-dipyrido[2,1-f:3′,4′-p][1]oxa[4,7,10,14]tetraazacycloheptadecine-7-carboxamide] | 810 | 171 | – | –
COc1cc2c(cc1OC)C(=O)N[C@H](C(=O)NCCc1ccccc1F)CC(=O)N(C)[C@@H](CC(C)C)C(=O)N(C)CC(=O)N[C@H](Cc1ccccc1)CO2 [Example 196, (3R,9S,13S)-3-benzyl-N-(2-fluorophenethyl)-9-isobutyl-17,18-dimethoxy-7,10-dimethyl-5,8,11,15-tetraoxo-2,3,4,5,6,7,8,9,10,11,12,13,14,15-tetradecahydrobenzo[p][1]oxa[4,7,10,14]tetraazacycloheptadecine-13-carboxamide] | – | – | 425 | Emax [4]: 106%
COc1cccc(CCNC(=O)[C@@H]2CC(=O)N(C)[C@@H](CC(C)C)C(=O)N3CCCC[C@@H]3C(=O)N[C@H](Cc3ccccc3)COc3cnc4ccccc4c3C(=O)N2)c1 [Example 365, (9S,13S,19aR,22R)-22-benzyl-13-isobutyl-N-(3-methoxyphenethyl)-12-methyl-7,11,14,20-tetraoxo-7,8,9,10,11,12,13,14,17,18,19,19a,20,21,22,23-hexadecahydro-16H-pyrido[2′,1′:6,7][1]oxa[4,7,10,14]tetraazacycloheptadecino[17,16-c]quinoline-9-carboxamide] | – | – | 398 | Emax [4]: 387%
COc1cccc(CCNC(=O)[C@@H]2CC(=O)N(C)[C@@H](CC(C)C)C(=O)N(C)[C@H](C)C(=O)N[C@H](Cc3ccccc3)COc3ccc4nccn4c3C(=O)N2)c1 [Example 788, (3S,7S,10R,13R)-13-benzyl-7-isobutyl-N-(3-methoxyphenethyl)-6,9,10-trimethyl-1,5,8,11-tetraoxo-1,2,3,4,5,6,7,8,9,10,11,12,13,14-tetradecahydroimidazo[1′,2′:1,6]pyrido[2,3-p][1]oxa[4,7,10,14]tetraazacycloheptadecine-3-carboxamide] | 549 | 344 | – | –
COc1cccc(CCNC(=O)[C@@H]2CC(=O)N(C)[C@@H](CC(C)C)C(=O)N3CCCC[C@H]3C(=O)N[C@H](Cc3ccccc3)COc3ccc4ccccc4c3C(=O)N2)c1 [Example 604, (4aS,7R,18S,22S)-7-benzyl-22-isobutyl-N-(3-methoxyphenethyl)-21-methyl-5,16,20,23-tetraoxo-2,3,4,4a,5,6,7,8,16,17,18,19,20,21,22,23-hexadecahydro-1H-naphtho[1,2-p]pyrido[2,1-f][1]oxa[4,7,10,14]tetraazacycloheptadecine-18-carboxamide] | 354 | 103 | – | –
